5 molecules from US20090081197A1 (Palatin Technologies, Inc., priority 2007, published 2009) can be followed below.

Non-standard residues stand in square brackets, D forms with d. Residues, ends and D or L forms follow the SMILES beside them. *: point of attachment. dPhe(4-Cl) = N[C@H](Cc1ccc(Cl)cc1)C(=O)O; Ahp = NCCCCCCC(=O)O; Bn = c1ccc(C*)cc1

Experiment [1] concerns the target T1, MC4-R (Homo sapiens, UniProt P32245). Put plainly: cAMP agonist stimulation, high receptor density system (10 ng/mL doxycycline). Particulars: for Efficacy/Intrinsic Activity: 10 ng/mL doxycycline, high receptor density hMC4-R system, NDP-α-MSH maximal cAMP = 1.0.
For experiment [2], the target named is T1, MC4-R. Put plainly: cAMP functional activity assay in HEK-293 cells, normal system. The class given is cell-based. On the set-up: expressed in transfected cells; host or cells: HEK-293. Particulars: for intrinsic activity at MC4-R in a normal system / EC50: normal receptor density system; for intrinsic activity at MC4-R in a normal system: NDP-α-MSH = 1.0; for functional status at MC4-R in cAMP assay: normal system, 1 μM concentration where stated. In general terms: Cyclic AMP is a second messenger, typically raised through Gs and lowered through Gi signalling.

Experiment [3] addresses MC5-R (Homo sapiens, UniProt P33032). The experiment in a line: Competitive inhibition assay using [I^125]-NDP-α-MSH, hMC5-R membranes. On the set-up: expressed in transfected cells. It is filed as binding. Particulars: for inhibition at 1 µM: 1 μM test compound, read-out: Inhibition at 1 μM (NDP-α-MSH) In Normal System, MC5-R; for Ki: read-out: Ki (nM) (NDP-α-MSH) In Normal System, MC5-R. Summed up: (§1)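 Tracer was 0.4 nM for MC3-R and MC5-R, 0.2 nM for MC4-R and 0.1 nM for MC1-R. Bound radioactivity was gamma-counted after filtration; values are triplicate means, with results below 0% reported as 0%.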

For experiment [4], the target named is MC3-R (Homo sapiens, UniProt P41968). Put plainly: Competitive inhibition assay using [I^125]-NDP-α-MSH, hMC3-R membranes. Details: expressed in transfected cells. The class given is binding. Particulars: for inhibition at 1 µM: 1 μM test compound, read-out: Inhibition at 1 μM (NDP-α-MSH) In Normal System, MC3-R; for Ki: read-out: Ki (nM) (NDP-α-MSH) In Normal System, MC3-R. The essentials:
as §1

Experiment [5] can be described thus: ICV food intake and body weight change. It is filed as in vivo. Particulars: rat, 1 nmol, 24 hours. As for the experimental part:
ICV food intake and body weight change. Change in food intake and body weight was evaluated for selected compounds. Rats with indwelling intracerebroventricular cannulas (ICV rats) were obtained from Hilltop Lab Animals, Inc. (Scottdale, Pa.). Animals were individually housed in conventional plexiglass hanging cages and maintained on a controlled 12 hour on/off light cycle. Water and powdered (LabDiet, 5P00 Prolab RMH 3000) or pelleted (Harlan Teklad 2018 18% Protein Rodent Diet) food was provided ad libitum. For 1 week before treatment, 24-hour food intake and body weight change was recorded to assess a baseline for the group during vehicle treatment. The rats were dosed ICV with vehicle or selected compounds (1-3 nmol). The changes in body weight and food intake for the 24 hour period after dosing were determined. The changes in body weight and food intake for the 48 hour and 72 hour periods after dosing were also measured to determine reversal of changes in body weight and food intake effects back to baseline levels.

The nature of experiment [6]: Penile erection induction in male rats. The class given is in vivo. Summed up: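 Male Sprague-Dawley rats (200-250 g), groups of 4-8, dosed IV or ICV at various doses and observed individually for penile erections. Only statistically relevant increases over vehicle-control mean PEs count as induction; IV responses below 1.0 PEs/rat treated as equivocal, some retested ICV.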

Experiment [7] in a line: IP (and IN) food intake, mice. The class given is in vivo. Particulars: mouse; for decrease in food intake: 20 hours. As for the experimental part:
IV and IP food intake and body weight change. Change in food intake and body weight was evaluated for selected compounds. Male Sprague-Dawley rats or male C57BL/6 mice were utilized. Animals were individually housed in conventional plexiglass hanging cages and maintained on a controlled 12 hour on/off light cycle. Water and powdered (LabDiet, 5P00 Prolab RMH 3000) or pelleted (Harlan Teklad 2018 18% Protein Rodent Diet) food was provided ad libitum. For 1 week before treatment, 24-hour food intake and body weight change was recorded to assess a baseline for the group during vehicle treatment. The rats were dosed IV with vehicle or selected compounds (0.5-3 mg/kg, and in some cases up to 10 mg/Kg) or dosed intraperitoneally (IP) with vehicle or selected compounds (0.5-10 mg/kg, and in some cases up to 50 mg/kg). Mice were dosed IP. […] The changes in body weight and food intake for the 48 hour and 72 hour periods after dosing were also measured to determined reversal of changes in body weight and food intake effects back to baseline levels.

Experiment [8] addresses T1, MC4-R. Put plainly: cAMP agonist stimulation, low receptor density system (0.1 ng/mL doxycycline). Particulars: for Efficacy/Intrinsic Activity: 0.1 ng/mL doxycycline, low receptor density hMC4-R system, NDP-α-MSH maximal cAMP = 1.0.
The target in experiment [9] is T2, MC1-R (Mus musculus, UniProt Q01727).
T2 construct: B-16 mouse melanoma cells (containing MC1-R); endogenous in cells
Put plainly: Competitive inhibition assay using [I^125]-NDP-α-MSH, B-16 mouse melanoma cell membranes. Particulars: for inhibition at 1 µM: 1 μM test compound, read-out: Inhibition at 1 μM (NDP-α-MSH) In Normal System, MC1-R; for Ki: read-out: Ki (nM) (NDP-α-MSH) In Normal System, MC1-R. It is filed as binding. The essentials: as §1

Experiment [10] deals with T1, MC4-R. The experiment in a line: Competitive inhibition assay using [I^125]-NDP-α-MSH, hMC4-R membranes. Details: host or cells: TREx-293 (HEK-293 stably expressing Tet repressor). It is filed as binding. Particulars: for inhibition at 1 µM: 1 μM test compound, read-out: Inhibition at 1 μM (NDP-α-MSH) In Normal System, MC4-R; for Ki: read-out: Ki (nM) (NDP-α-MSH) In Normal System, MC4-R. The essentials: as §1

The term EC50 denotes the concentration that produces a half-maximal response. Read a high EC50 as a less potent agent. A word on the inhibition: it is the drop in the measured response relative to a control, in per cent. In general, Ki refers to the dissociation constant of the complex between target and ligand, obtained from inhibition or displacement.

Chain of MC5-R (P33032 whole entry): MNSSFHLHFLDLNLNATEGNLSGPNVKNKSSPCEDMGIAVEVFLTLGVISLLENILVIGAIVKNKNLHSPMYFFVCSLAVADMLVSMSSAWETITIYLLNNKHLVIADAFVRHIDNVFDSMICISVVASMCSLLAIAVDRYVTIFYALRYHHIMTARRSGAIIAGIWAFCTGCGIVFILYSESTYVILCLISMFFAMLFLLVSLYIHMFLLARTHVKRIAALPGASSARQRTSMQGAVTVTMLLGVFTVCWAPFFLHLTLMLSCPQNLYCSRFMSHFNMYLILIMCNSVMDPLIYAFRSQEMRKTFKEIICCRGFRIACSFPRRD
Chain of MC3-R (P41968 whole entry): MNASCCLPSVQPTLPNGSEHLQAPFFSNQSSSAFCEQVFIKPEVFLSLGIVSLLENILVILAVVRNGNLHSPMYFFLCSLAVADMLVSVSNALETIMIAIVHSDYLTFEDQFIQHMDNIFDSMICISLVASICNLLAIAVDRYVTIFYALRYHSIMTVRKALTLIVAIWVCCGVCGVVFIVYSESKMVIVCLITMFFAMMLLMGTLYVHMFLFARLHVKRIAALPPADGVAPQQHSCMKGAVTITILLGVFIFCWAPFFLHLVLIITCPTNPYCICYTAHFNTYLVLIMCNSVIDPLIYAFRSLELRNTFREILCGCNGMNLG
T2 sequence (Q01727 whole entry): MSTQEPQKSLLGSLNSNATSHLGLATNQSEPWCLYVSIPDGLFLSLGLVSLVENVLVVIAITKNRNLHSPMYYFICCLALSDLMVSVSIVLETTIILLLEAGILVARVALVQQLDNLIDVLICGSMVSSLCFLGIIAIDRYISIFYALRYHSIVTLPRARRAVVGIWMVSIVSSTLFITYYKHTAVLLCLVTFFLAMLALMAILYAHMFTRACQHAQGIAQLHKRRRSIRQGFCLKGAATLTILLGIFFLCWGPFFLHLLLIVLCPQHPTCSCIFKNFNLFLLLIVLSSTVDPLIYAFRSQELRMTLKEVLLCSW
T1 sequence (P32245 whole entry): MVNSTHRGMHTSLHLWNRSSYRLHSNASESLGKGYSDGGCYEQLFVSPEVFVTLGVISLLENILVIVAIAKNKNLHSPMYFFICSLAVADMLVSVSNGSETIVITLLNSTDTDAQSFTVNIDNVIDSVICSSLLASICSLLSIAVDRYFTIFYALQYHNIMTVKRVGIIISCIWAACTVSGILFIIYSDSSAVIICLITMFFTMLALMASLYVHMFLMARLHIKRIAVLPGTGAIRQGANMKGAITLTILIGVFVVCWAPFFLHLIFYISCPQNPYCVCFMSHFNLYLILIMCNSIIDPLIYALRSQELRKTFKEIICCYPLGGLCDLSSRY

Turning to `N=C(N)NCCC[C@H](NC(=O)[C@@H](Cc1ccc(Cl)cc1)NC(=O)[C@H](COCc1ccccc1)NC(=O)CCCCCCN)C(=O)N[C@@H](Cc1c[nH]c2ccccc12)C(N)=O` [Example 1, NH2—(CH2)6—C(═O)-Ser(Bzl)-(D)Phe(4-Cl)-Arg-Trp-NH2] (H-[Ahp]S(Bn)[dPhe(4-Cl)]RW-NH2), a half-maximal response in experiment [1] (EC50) required 21 nM. For the same molecule, the “Efficacy/Intrinsic Activity” value in [1] is 0.97; in experiment [8], “None”. For the same molecule, the “intrinsic activity at MC4-R in a normal system” value (shortened to “intrinsic activity at MC4-R”) in [2] is listed as 0.32. Moreover, the “functional status at MC4-R in cAMP assay” value in [2] was “partial agonist (intrinsic activity between 0.1 (10%) and 0.7 (70%) is classified as a partial agonist)”. The inhibition at 1 µM worked out at 73% in experiment [3], 94% in experiment [4], 33% in experiment [9] and 99% in experiment [10]. For the same molecule, in experiment [5], the “decrease in food intake” value is listed as 21%. Besides, in experiment [6] (rat, ICV), the “Penile Erection ICV” value is reported as “No”. Further, in [6] (rat, ICV, 0.01 to 5 nmol), the penile erection response result is “no penile erection response”. Further, the “maximal decrease in food intake” value in experiment [7] (IN, 10 μg/kg, 4 hours) was determined as 16%; in [7] (IP, 3 mg/kg, 4 hours) it was 26%. Besides, the Ki in experiment [10] amounted to 3 nM.

As to `C[C@@H]1CN(C(=O)[C@H](N)Cc2ccc(Cl)cc2)[C@@H](CCCNC(=N)N)CN1CCc1ccc2ccccc2c1` [Example 28, N-{3-[1-[2(R)-Amino-3-(4-chloro-phenyl)-propionyl]-5(R)-methyl-4-(2-naphthalen-2-yl-ethyl)-piperazin-2(S)-yl]-propyl}-guanidine], the EC50 in [1] turned out to be 24 nM; in [8], 106 nM. Moreover, the results for the “Efficacy/Intrinsic Activity” value in experiment [1] and in experiment [8] were 0.75 and 0.29, respectively. For the same molecule, the “intrinsic activity at MC4-R” value in experiment [2] amounted to 0.8. Further, the “functional status at MC4-R in cAMP assay” value in experiment [2] was “agonist (intrinsic activity of 0.7 (70%) or higher is classified as an agonist)”. For the same molecule, the inhibition at 1 µM in [3] turned out to be 61%; in [4], 70%; in experiment [9], 64%; in experiment [10], 97%. Also, the “Penile Erection IV” value in experiment [6] (rat, IV) is “No”. For the same molecule, the penile erection response result in experiment [6] (rat, IV, 0.003 to 3 mg/kg) is on record as “no penile erections”. Further, the “maximal decrease in food intake” value in [7] (IP, 3 mg/kg, 4 hours) stood at 46%.

`Cc1ccc(C[C@@H](N)C(=O)N2C[C@@H](C)N(C(=O)Cc3ccc4ccccc4c3)C[C@@H]2CCCNC(=N)N)c(C)c1` [Example 29]: the results for the EC50 in experiment [1], in [2] and in experiment [8] were 34 nM, 46 nM and 45 nM, respectively. In addition, the “Efficacy/Intrinsic Activity” value in experiment [1] stood at 0.77; in experiment [8], 0.25. In [2], the “intrinsic activity at MC4-R” value is on record as 0.8. For the same molecule, the “functional status at MC4-R in cAMP assay” value in experiment [2] was “agonist (intrinsic activity of 0.7 (70%) or higher is classified as an agonist)”. In addition, the inhibition at 1 µM in experiment [3] is 7%; in experiment [4], 25%; in experiment [9], 0%; in experiment [10], 85%. For the same molecule, the Ki was determined as 1540 nM in experiment [3], 526 nM in [4], 431 nM in experiment [9] and 6 nM in experiment [10]. Besides, the “maximum mean PEs per rat” value in [6] (IV, 0.0003 to 0.03 mg/kg) is 0.5. Moreover, in [6] (rat, IV), the “Penile Erection IV” value is given as “Yes*”. The animals responding result in experiment [6] (rat, IV, 0.0003 to 0.03 mg/kg) is on record as “no more than 50%”. Besides, the “decrease in food intake” value in [7] (IP, 3 mg/kg) was 3%; in experiment [7] (IP, 10 mg/kg), 26%.

For the molecule `CC(=O)N[C@H](Cc1ccc(C)cc1C)C(=O)N1C[C@@H](C)N(C(=O)Cc2ccc3ccccc3c2)C[C@@H]1CCCNC(=N)N` [Example 30, N-{(R)-1-(2,4 dimethyl-benzyl)-2-[(2S,5R)-2-(3-guanidino-propyl)-5-methyl-4-(2-naphthalen-2-yl-acetyl)-piperazin-1-yl]-2-oxo-ethyl}-acetamide], the EC50 in experiment [1] turned out to be 51 nM; in experiment [2], 9 nM. In addition, the “Efficacy/Intrinsic Activity” value in experiment [1] was 0.18; in experiment [8], “None”. The “intrinsic activity at MC4-R” value in experiment [2] turned out to be 0.4. Also, the “functional status at MC4-R in cAMP assay” value in experiment [2] was “partial agonist (intrinsic activity between 0.1 (10%) and 0.7 (70%) is classified as a partial agonist)”. Besides, the Ki in [3] was found to be 250 nM; in experiment [4], 232 nM; in experiment [9], 1880 nM; in experiment [10] it was 11 nM. Besides, the “Penile Erection IV” value in experiment [6] (rat, IV) was “No”. Besides, the penile erection response entry in experiment [6] (rat, IV, 0.0003 to 0.03 mg/kg) is listed as “no penile activity response”. For the same molecule, the inhibition in vivo at 3 mg/kg in experiment [7] (IP, 3 mg/kg, 4 hours, read-out: maximal decrease in food intake) is 8%.

For the molecule `CC(=O)N[C@H](Cc1ccc(Cl)cc1C)C(=O)N1C[C@@H](C)N(C(=O)Cc2ccc3ccccc3c2)C[C@@H]1CCCNC(=N)N` [Example 31, N-{(R)-1-(2-methyl, 4-chloro-benzyl)-2-[(2S,5R)-2-(3-guanidino-propyl)-5-methyl-4-(2-naphthalen-2-yl-acetyl)-piperazin-1-yl]-2-oxo-ethyl}-acetamide], the values for the EC50 in experiment [1] and in experiment [2] were 39 nM and 3 nM, respectively. Further, the “Efficacy/Intrinsic Activity” value in experiment [1] is reported as 0.27; in [8], “None”. The “intrinsic activity at MC4-R” value in [2] came to 0.6. Moreover, the “functional status at MC4-R in cAMP assay” value in [2] is “partial agonist (intrinsic activity between 0.1 (10%) and 0.7 (70%) is classified as a partial agonist)”. Also, the Ki in experiment [3] turned out to be 234 nM; in experiment [4] it was 136 nM; in [9] it was 1390 nM; in experiment [10] it was 5 nM. Besides, the “Penile Erection IV” value in [6] (rat, IV) was “No”. Moreover, in experiment [6] (rat, IV, 0.0003 to 0.03 mg/kg), the penile erection response entry is recorded as “no penile activity response”. For the same molecule, in experiment [7] (IP, 10 mg/kg, 4 hours, read-out: maximal decrease in food intake), the inhibition in vivo at 10 mg/kg is 7%.
